One test concerns the target hCA I (Homo sapiens, UniProt P00915). Nature of the test: biochemical. It is filed as biochemical.
Another test has as its target hCA II (Homo sapiens, UniProt P00918). The test is described as follows: biochemical. It is filed as biochemical.
The next test addresses AChE (Homo sapiens, UniProt P22303). Nature of the test: biochemical. Format: biochemical.
The next test has as its target T1, BChE from equine serum (Equus caballus, UniProt P81908).
T1 construct: from tissue; host or cells: equine serum
Nature of the test: biochemical. It is filed as biochemical. As for the experimental part:
All of the measurements were repeated thrice. AChE and BChE activity were assessed using a modified version of the Ellman method.[48] The measurement of AChE/BChE activity was conducted with acetylthiocholine iodide/butyrylthiocholine iodide as substrates along with 5,5-dithiobis (2-nitrobenzoic) acid.

The test system of test [1] is BT-549 cells. The test is described as follows: MTT cytotoxicity assay, BT-549. The conditions noted are these: 96 h treatment. It is filed as cell-based, human.
The next test concerns MDA-MB-231 cells. The test is described as follows: MTT cytotoxicity assay, MDA-MB-231. Format: cell-based. As to conditions: Homo sapiens, 72 h treatment.
The test system of test [2] is BT-549 cells. Nature of the test: Colony formation inhibition assay. It is filed as cell-based, human. As to conditions: for colony formation inhibition: 10 μM, 20 μM, and 30 μM, 7–10 days.
Setting [3] is: ratio of Ki versus tacrine (TAC/THA).

The text below walks through data of article PMC11603219, “Novel Dibenzoazepine-Substituted Triazole Hybrids as Cholinesterase and Carbonic Anhydrase Inhibitors and Anticancer Agents: Synthesis, Characterization, Biological Evaluation, and In Silico Studies” (ACS Omega, 2024).

T1 sequence (P81908 whole entry): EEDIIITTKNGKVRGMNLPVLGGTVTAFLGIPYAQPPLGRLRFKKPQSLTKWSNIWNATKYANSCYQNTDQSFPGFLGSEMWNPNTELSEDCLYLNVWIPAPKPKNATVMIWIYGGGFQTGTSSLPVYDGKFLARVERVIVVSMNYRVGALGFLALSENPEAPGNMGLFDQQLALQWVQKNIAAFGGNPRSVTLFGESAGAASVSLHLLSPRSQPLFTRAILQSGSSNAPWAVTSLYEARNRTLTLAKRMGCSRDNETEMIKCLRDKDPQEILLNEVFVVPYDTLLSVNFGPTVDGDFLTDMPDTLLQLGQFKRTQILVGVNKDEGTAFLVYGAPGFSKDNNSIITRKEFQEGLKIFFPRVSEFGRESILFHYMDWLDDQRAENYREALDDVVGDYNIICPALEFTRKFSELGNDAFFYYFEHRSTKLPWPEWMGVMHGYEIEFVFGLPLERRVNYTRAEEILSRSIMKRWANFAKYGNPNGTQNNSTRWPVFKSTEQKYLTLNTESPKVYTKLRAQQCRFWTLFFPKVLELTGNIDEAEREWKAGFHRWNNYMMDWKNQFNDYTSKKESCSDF
AChE, sequence (P22303 32-614): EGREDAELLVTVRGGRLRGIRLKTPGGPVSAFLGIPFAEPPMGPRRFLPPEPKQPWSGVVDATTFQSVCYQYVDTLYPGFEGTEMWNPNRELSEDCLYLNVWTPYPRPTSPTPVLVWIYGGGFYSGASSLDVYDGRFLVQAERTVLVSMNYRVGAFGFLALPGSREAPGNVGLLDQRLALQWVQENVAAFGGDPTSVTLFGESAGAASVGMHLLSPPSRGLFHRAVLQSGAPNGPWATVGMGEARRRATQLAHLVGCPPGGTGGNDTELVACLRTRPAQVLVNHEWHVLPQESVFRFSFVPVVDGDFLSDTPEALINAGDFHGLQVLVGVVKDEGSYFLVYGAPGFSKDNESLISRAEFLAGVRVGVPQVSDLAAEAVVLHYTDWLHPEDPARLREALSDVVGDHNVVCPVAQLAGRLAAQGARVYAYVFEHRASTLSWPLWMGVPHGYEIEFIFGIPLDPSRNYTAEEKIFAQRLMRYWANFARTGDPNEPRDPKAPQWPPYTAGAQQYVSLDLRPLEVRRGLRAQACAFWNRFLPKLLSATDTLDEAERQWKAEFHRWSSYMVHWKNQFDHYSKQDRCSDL
hCA I, sequence (P00915 whole entry): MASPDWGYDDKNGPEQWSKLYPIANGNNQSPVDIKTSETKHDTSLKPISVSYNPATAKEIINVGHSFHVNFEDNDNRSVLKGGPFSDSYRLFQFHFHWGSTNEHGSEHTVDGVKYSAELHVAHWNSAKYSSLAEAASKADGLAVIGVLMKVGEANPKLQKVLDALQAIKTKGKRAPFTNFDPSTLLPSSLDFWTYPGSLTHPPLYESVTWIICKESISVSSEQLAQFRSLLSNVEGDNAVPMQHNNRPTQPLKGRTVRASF

Turning to `C1=Cc2ccccc2N(Cc2cn(Cc3ccccc3)nn2)c2ccccc21` [Compound 12, 5-((1-Benzyl-1H-1,2,3-triazol-4-yl)methyl)-5H-dibenzo[b,f]azepine], the Ki at hCA I amounted to 48.8 ± 4.68 nM; at hCA II, 40.5 ± 5.85 nM; at AChE, 28.9 ± 3.52 nM; on BChE from equine serum it was 48.8 ± 8.62 nM. In addition, the IC50 in the test with BT-549 cells [1] (Homo sapiens, BT-549, 96 h) is 33500 ± 3030 nM; with MDA-MB-231 cells, 12500 ± 1920 nM.

For the molecule `C1=Cc2ccccc2N(Cc2cn(-c3cccnc3)nn2)c2ccccc21` [Compound 14, 5-((1-(Pyridin-3-yl)-1H-1,2,3-triazol-4-yl)methyl)-5H-dibenzo[b,f]azepine], the inhibition constant (Ki) on hCA I worked out at 29.9 ± 5.93 nM; on hCA II, 17.7 ± 1.54 nM; on AChE, 21.2 ± 5.87 nM; at BChE from equine serum, 7.65 ± 1.49 nM. For the same molecule, on hCA I (ratio of Ki versus AZA), the “fold more active than acetazolamide for hCA I” value was found to be 4.16 fold. The “fold more active than acetazolamide for hCA II” value on hCA II (ratio of Ki versus AZA) was found to be 5.79 fold. The IC50 in the test with BT-549 cells [1] is 16600 ± 970 nM; in the test with BT-549 cells [1] (Homo sapiens, BT-549, 96 h), at most 20000 nM; with MDA-MB-231 cells, above 75000 nM. Also, the “concentration at which BT-549 colonies were inhibited/suppressed” value in the test with BT-549 cells [2] amounted to 10 µM. The colony formation inhibition entry in the test on BT-549 cells [2] is “suppressed the colonies”.

On to `C1=Cc2ccccc2N(Cc2cn(-c3cccc4ccccc34)nn2)c2ccccc21` [Compound 13, 5-((1-(Naphthalen-1-yl)–1H-1,2,3-triazol-4-yl)methyl)-5H-dibenzo[b,f]azepine], for which the inhibitory constant (Ki) on hCA I turned out to be 62.1 ± 8.53 nM; on hCA II it was 28.8 ± 4.64 nM; on AChE, 14.1 ± 3.81 nM; at BChE from equine serum it was 1.15 ± 0.15 nM. In addition, on AChE (setting [3]), the “fold more active than tacrine for AChE” value is given as 5.49 fold. In addition, the “times more inhibition effect than compound 12, BChE” value at BChE from equine serum (ratio of Ki versus compound 12) is “approximately 42.48 times”. Further, on BChE from equine serum (setting [3]), the “fold more active than tacrine for BChE” value is reported as 49.70 fold. The “times more inhibition effect, BChE, compound 18 comparison” value on BChE from equine serum (ratio of Ki, compound 13 and compound 18) stood at 34.04 times. The IC50 was above 40000 nM with BT-549 cells [1] (Homo sapiens, BT-549, 96 h) and above 125000 nM with MDA-MB-231 cells.

Regarding `COc1cc(-n2cc(CN3c4ccccc4C=Cc4ccccc43)nn2)cc(OC)c1OC` [Compound 19, 5-((1-(3,4,5-Trimethoxyphenyl)-1H-1,2,3-triazol-4-yl)methyl)-5H-dibenzo[b,f]azepine], the Ki on hCA I is 94 ± 15.5 nM; on hCA II, 61.4 ± 9.11 nM; at AChE, 34.5 ± 8.54 nM; on BChE from equine serum, 2.22 ± 0.17 nM. For the same molecule, the 50% inhibitory concentration (IC50) is 18100 ± 2140 nM in the test on BT-549 cells [1]; at most 20000 nM in the test on BT-549 cells [1] (Homo sapiens, BT-549, 96 h); above 150000 nM in the test with MDA-MB-231 cells. Besides, the “concentration at which BT-549 colonies were inhibited/suppressed” value with BT-549 cells [2] is 20 µM. The colony formation inhibition result in the test with BT-549 cells [2] is given as “suppressed the colonies”.

Consider `Oc1ccccc1-n1cc(CN2c3ccccc3C=Cc3ccccc32)nn1` [Compound 20, 2-(4-((5H-Dibenzo[b,f]azepin-5-yl)methyl)-1H-1,2,3-triazol-1-yl)phenol], for which the inhibition constant Ki worked out at 80.4 ± 15.6 nM at hCA I, 89.4 ± 4.92 nM on hCA II, 22.8 ± 4.78 nM at AChE and 16.2 ± 2.43 nM on BChE from equine serum. In addition, the IC50 in the test with BT-549 cells [1] (Homo sapiens, BT-549, 96 h) is 36200 ± 3770 nM; in the test with MDA-MB-231 cells it was above 100000 nM.

Consider `COc1ccc(-n2cc(CN3c4ccccc4C=Cc4ccccc43)nn2)cc1` [Compound 15, 5-((1-(4-Methoxyphenyl)-1H-1,2,3-triazol-4-yl)methyl)-5H-dibenzo[b,f]azepine], for which the Ki at hCA I stood at 54.7 ± 9.63 nM; at hCA II, 39.1 ± 2.17 nM; on AChE, 24.1 ± 0.45 nM; at BChE from equine serum, 4.11 ± 0.46 nM. For the same molecule, the concentration for half-maximal inhibition (IC50) with BT-549 cells [1] (Homo sapiens, BT-549, 96 h) was 26800 ± 4600 nM; in the test with MDA-MB-231 cells, above 150000 nM. The “concentration at which BT-549 colonies were inhibited/suppressed” value with BT-549 cells [2] is 20 µM. Besides, the colony formation inhibition result with BT-549 cells [2] was “suppressed the colonies”.

In the case of `O=[N+]([O-])c1ccc(-n2cc(CN3c4ccccc4C=Cc4ccccc43)nn2)cc1` [Compound 18, 5-((1-(4-Nitrophenyl)-1H-1,2,3-triazol-4-yl)methyl)-5H-dibenzo[b,f]azepine], the Ki came out at 118 ± 21 nM at hCA I, 69.7 ± 5.93 nM at hCA II, 44.7 ± 9.61 nM on AChE and 39.1 ± 8.82 nM at BChE from equine serum. The IC50 with BT-549 cells [1] (Homo sapiens, BT-549, 96 h) is above 40000 nM; in the test on MDA-MB-231 cells, above 150000 nM.

As to `NS(=O)(=O)c1ccc(-n2cc(CN3c4ccccc4C=Cc4ccccc43)nn2)cc1` [Compound 17, 4-(4-((5H-Dibenzo[b,f]azepin-5-yl)methyl)-1H-1,2,3-triazol-1-yl)benzenesulfonamide], the Ki on hCA I stood at 40.5 ± 11.1 nM; on hCA II, 56.7 ± 11.5 nM; at AChE, 19 ± 5.44 nM; at BChE from equine serum, 15.3 ± 1.12 nM. For the same molecule, the IC50 was 17400 ± 3090 nM in the test on BT-549 cells [1]; at most 20000 nM with BT-549 cells [1] (Homo sapiens, BT-549, 96 h); 36500 ± 1620 nM in the test on MDA-MB-231 cells. Besides, the “concentration at which BT-549 colonies were inhibited/suppressed” value in the test with BT-549 cells [2] worked out at 20 µM. In the test on BT-549 cells [2], the colony formation inhibition result was “suppressed the colonies”.

With `O=c1ccc2ccc(OCCn3cc(CN4c5ccccc5C=Cc5ccccc54)nn3)cc2o1` [Compound 16, 7-(2-(4-((5H-Dibenzo[b,f]azepin-5-yl)methyl)-1H-1,2,3-triazol-1-yl)ethoxy)-2H-chromen-2-one], the inhibition constant (Ki) was determined as 122 ± 20.2 nM at hCA I, 54.6 ± 1.99 nM on hCA II, 17.5 ± 2.19 nM at AChE and 11.2 ± 1.55 nM at BChE from equine serum. Also, the 50% inhibitory concentration (IC50) is 17700 ± 2540 nM in the test on BT-549 cells [1]; at most 20000 nM in the test on BT-549 cells [1] (Homo sapiens, BT-549, 96 h); above 150000 nM in the test on MDA-MB-231 cells. The colony formation inhibition result with BT-549 cells [2] is “suppressed the colonies”.
